Source: patent publication US10815222B2, “Compounds for use in the treatment of kinetoplastid infection” (C.N.C.C.S. S.c.a.r.l. COLLEZIONE NAZIONALE DEI COMPOSTI …, priority 2016, dated 2020)

These molecules were tested on Bloodstream form of Trypanosoma brucei, strain Lister 427 (assay: Trypanosoma brucei growth inhibition assay (CellTiter-Glo, 24 h)). Conditions: Trypanosoma brucei; T. Brucei Growth Inibition Assay, class symbols; read-out: T. Brucei GI EC50.
Format: cell-based
Procedure, shortened: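 Bloodstream-form T. brucei Lister 427, 1500 parasites per well in supplemented IMDM with 10% FBS, were exposed to compound (DMSO ≤0.25% final) for 24 h at 37 °C. Viability was measured by CellTiter-Glo luminescence.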

| SMILES | EC50 |
| --- | --- |
| COc1ccc2nc(C(F)(F)F)n(CC(=O)N3CCN(CCc4ccccn4)CCC3c3ncc(-c4cc5ccccc5nc4OC)[nH]3)c2c1 (stereo not drawn) [2-(6-methoxy-2-(trifluoromethyl)-1H-benzo[d]imidazol-1-yl)-1-(7-(5-(2-methoxyquinolin-3-yl)-1H-imidazol-2-yl)-4-(2-(pyridin-2-yl)ethyl)-1,4-diazepan-1-yl)-ethan-1-one] | 100 to 500 nM |
| COc1ccc2nc(C(F)(F)F)n(CC(=O)N3CCN(Cc4ccn(C)n4)CCC3c3ncc(-c4cc5ccccc5nc4OC)[nH]3)c2c1 (stereo not drawn) [2-(6-methoxy-2-(trifluoromethyl)-1H-benzo[d]imidazol-1-yl)-1-(7-(5-(2-methoxyquinolin-3-yl)-1H-imidazol-2-yl)-4-((1-methyl-1H-pyrazol-3-yl)methyl)-1,4-diazepan-1-yl)ethan-1-one] | < 100 nM |
| COc1ccc2nc(C(F)(F)F)n(CC(=O)N3CCN(CC4CCOC4)CCC3c3ncc(-c4cc5ccccc5nc4OC)[nH]3)c2c1 (stereo not drawn) [2-(6-methoxy-2-(trifluoromethyl)-1H-benzo[d]imidazol-1-yl)-1-(7-(5-(2-methoxyquinolin-3-yl)-1H-imidazol-2-yl)-4-((tetrahydrofuran-3-yl)methyl)-1,4-diazepan-1-yl)ethan-1-one] | < 100 nM |
| COc1ccc2nc(C(F)(F)F)n(CC(=O)N3CCN(Cc4ncco4)CCC3c3ncc(-c4cc5ccccc5nc4OC)[nH]3)c2c1 (stereo not drawn) [2-(6-methoxy-2-(trifluoromethyl)-1H-benzo[d]imidazol-1-yl)-1-(7-(5-(2-methoxyquinolin-3-yl)-1H-imidazol-2-yl)-4-(oxazol-2-ylmethyl)-1,4-diazepan-1-yl)ethan-1-one] | < 100 nM |
| COc1ccc2nc(C(F)(F)F)n(CC(=O)N3CCN(Cc4cocn4)CCC3c3ncc(-c4cc5ccccc5nc4OC)[nH]3)c2c1 (stereo not drawn) [2-(6-methoxy-2-(trifluoromethyl)-1H-benzo[d]imidazol-1-yl)-1-(7-(5-(2-methoxyquinolin-3-yl)-1H-imidazol-2-yl)-4-(oxazol-4-ylmethyl)-1,4-diazepan-1-yl)ethan-1-one] | < 100 nM |
| COc1ccc2nc(C(F)(F)F)n(CC(=O)N3CCN(Cc4cnccn4)CCC3c3ncc(-c4cc5ccccc5nc4OC)[nH]3)c2c1 (stereo not drawn) [2-(6-methoxy-2-(trifluoromethyl)-1H-benzo[d]imidazol-1-yl)-1-(7-(5-(2-methoxyquinolin-3-yl)-1H-imidazol-2-yl)-4-(pyrazin-2-ylmethyl)-1,4-diazepan-1-yl)ethan-1-one] | < 100 nM |
| COc1ccc2nc(C(F)(F)F)n(CC(=O)N3CCN(Cc4ccccn4)CCC3c3ncc(-c4cc5ccccc5nc4OC)[nH]3)c2c1 (stereo not drawn) [2-(6-methoxy-2-(trifluoromethyl)-1H-benzo[d]imidazol-1-yl)-1-(7-(5-(2-methoxyquinolin-3-yl)-1H-imidazol-2-yl)-4-(pyridin-2-ylmethyl)-1,4-diazepan-1-yl)ethan-1-one] | < 100 nM |
| COc1ccc2nc(C(F)(F)F)n(CC(=O)N3CCN(C4CCOCC4)CCC3c3ncc(-c4cc5ccccc5nc4OC)[nH]3)c2c1 (stereo not drawn) [2-(6-methoxy-2-(trifluoromethyl)-1H-benzo[d]imidazol-1-yl)-1-(7-(5-(2-methoxyquinolin-3-yl)-1H-imidazol-2-yl)-4-(tetrahydro-2H-pyran-4-yl)-1,4-diazepan-1-yl)ethan-1-one] | < 100 nM |
| COc1ccc2nc(C(F)(F)F)n(CC(=O)N3CCN(C4CCOC4)CCC3c3ncc(-c4cc5ccccc5nc4OC)[nH]3)c2c1 (stereo not drawn) [2-(6-methoxy-2-(trifluoromethyl)-1H-benzo[d]imidazol-1-yl)-1-(7-(5-(2-methoxyquinolin-3-yl)-1H-imidazol-2-yl)-4-(tetrahydrofuran-3-yl)-1,4-diazepan-1-yl)ethan-1-one] | < 100 nM |
| COc1ccc2nc(C(F)(F)F)n(CC(=O)N3CCN(Cc4nccs4)CCC3c3ncc(-c4cc5ccccc5nc4OC)[nH]3)c2c1 (stereo not drawn) [2-(6-methoxy-2-(trifluoromethyl)-1H-benzo[d]imidazol-1-yl)-1-(7-(5-(2-methoxyquinolin-3-yl)-1H-imidazol-2-yl)-4-(thiazol-2-ylmethyl)-1,4-diazepan-1-yl)ethan-1-one] | < 100 nM |
| COc1ccc2nc(C(F)(F)F)n(CC(=O)N3CCN(Cc4cscn4)CCC3c3ncc(-c4cc5ccccc5nc4OC)[nH]3)c2c1 (stereo not drawn) [2-(6-methoxy-2-(trifluoromethyl)-1H-benzo[d]imidazol-1-yl)-1-(7-(5-(2-methoxyquinolin-3-yl)-1H-imidazol-2-yl)-4-(thiazol-4-ylmethyl)-1,4-diazepan-1-yl)ethan-1-one] | < 100 nM |
| COc1ccc2nc(C(F)(F)F)n(CC(=O)N3CCN(CC4CCOC4)C[C@H]3c3noc(-c4cc5ccccc5nc4OC)n3)c2c1 (stereo partly drawn) [2-(6-methoxy-2-(trifluoromethyl)-1H-benzo[d]imidazol-1-yl)-1-((2S)-2-(5-(2-methoxyquinolin-3-yl)-1,2,4-oxadiazol-3-yl)-4-((tetrahydrofuran-3-yl)methyl)piperazin-1-yl)ethan-1-one] | 1010 to 5000 nM |
| COc1ccc2nc(C(F)(F)F)n(CC(=O)N3CCN(CC4CCOC4)C[C@H]3c3ncc(-c4cc5ccccc5nc4OC)[nH]3)c2c1 (stereo partly drawn) [2-(6-methoxy-2-(trifluoromethyl)-1H-benzo[d]imidazol-1-yl)-1-((2S)-2-(5-(2-methoxyquinolin-3-yl)-1H-imidazol-2-yl)-4-((tetrahydrofuran-3-yl)methyl)piperazin-1-yl)ethan-1-one] | < 100 nM |
| COc1ccc2nc(C(F)(F)F)n(CC(=O)N3CCC(N(C)Cc4cnccn4)C[C@H]3c3ncc(-c4cc5ccccc5nc4OC)[nH]3)c2c1 (stereo partly drawn) [2-(6-methoxy-2-(trifluoromethyl)-1H-benzo[d]imidazol-1-yl)-1-((2S)-2-(5-(2-methoxyquinolin-3-yl)-1H-imidazol-2-yl)-4-(methyl(pyrazin-2-ylmethyl)amino)piperidin-1-yl)ethan-1-one] | < 100 nM |
| COc1ccc2nc(C(F)(F)F)n(CC(=O)N3CCN(CC4CCOC4)C[C@H]3c3nnc(-c4cc5ccccc5nc4OC)[nH]3)c2c1 (stereo partly drawn) [2-(6-methoxy-2-(trifluoromethyl)-1H-benzo[d]imidazol-1-yl)-1-((2S)-2-(5-(2-methoxyquinolin-3-yl)-4H-1,2,4-triazol-3-yl)-4-((tetrahydrofuran-3-yl)methyl)piperazin-1-yl)ethan-1-one] | < 100 nM |
| COc1ccc2nc(C(F)(F)F)n(CC(=O)N3CC[C@@H](N(C)Cc4ccn(C)n4)C[C@H]3c3ncc(-c4cc5ccccc5nc4OC)[nH]3)c2c1 [2-(6-methoxy-2-(trifluoromethyl)-1H-benzo[d]imidazol-1-yl)-1-((2S,4R)-2-(5-(2-methoxyquinolin-3-yl)-1H-imidazol-2-yl)-4-(methyl((1-methyl-1H-pyrazol-3-yl)methyl)amino)piperidin-1-yl)ethan-1-one] | < 100 nM |
| COc1ccc2nc(C(F)(F)F)n(CC(=O)N3CC[C@H](NCc4cncn4C)C[C@H]3c3ncc(-c4cc5ccccc5nc4OC)[nH]3)c2c1 [2-(6-methoxy-2-(trifluoromethyl)-1H-benzo[d]imidazol-1-yl)-1-((2S,4S)-2-(5-(2-methoxyquinolin-3-yl)-1H-imidazol-2-yl)-4-(((1-methyl-1H-imidazol-5-yl)methyl)amino)piperidin-1-yl)ethan-1-one] | < 100 nM |
| COc1ccc2nc(C(F)(F)F)n(CC(=O)N3CC[C@H](NCc4ccn(C)n4)C[C@H]3c3ncc(-c4cc5ccccc5nc4OC)[nH]3)c2c1 [2-(6-methoxy-2-(trifluoromethyl)-1H-benzo[d]imidazol-1-yl)-1-((2S,4S)-2-(5-(2-methoxyquinolin-3-yl)-1H-imidazol-2-yl)-4-(((1-methyl-1H-pyrazol-3-yl)methyl)amino)piperidin-1-yl)ethan-1-one] | < 100 nM |
| COc1ccc2nc(C(F)(F)F)n(CC(=O)N3CC[C@H](N[C@@H]4CCOC4)C[C@H]3c3ncc(-c4cc5ccccc5nc4OC)[nH]3)c2c1 [2-(6-methoxy-2-(trifluoromethyl)-1H-benzo[d]imidazol-1-yl)-1-((2S,4S)-2-(5-(2-methoxyquinolin-3-yl)-1H-imidazol-2-yl)-4-(((R)-tetrahydrofuran-3-yl)amino)piperidin-1-yl)ethan-1-one] | < 100 nM |
| COc1ccc2nc(C(F)(F)F)n(CC(=O)N3CC[C@H](N[C@H]4CCOC4)C[C@H]3c3ncc(-c4cc5ccccc5nc4OC)[nH]3)c2c1 [2-(6-methoxy-2-(trifluoromethyl)-1H-benzo[d]imidazol-1-yl)-1-((2S,4S)-2-(5-(2-methoxyquinolin-3-yl)-1H-imidazol-2-yl)-4-(((S)-tetrahydrofuran-3-yl)amino)piperidin-1-yl)ethan-1-one] | < 100 nM |
| COc1ccc2nc(C(F)(F)F)n(CC(=O)N3CC[C@H](NCC4CCOC4)C[C@H]3c3ncc(-c4cc5ccccc5nc4OC)[nH]3)c2c1 (stereo partly drawn) [2-(6-methoxy-2-(trifluoromethyl)-1H-benzo[d]imidazol-1-yl)-1-((2S,4S)-2-(5-(2-methoxyquinolin-3-yl)-1H-imidazol-2-yl)-4-(((tetrahydrofuran-3-yl)methyl)amino)piperidin-1-yl)ethan-1-one] | < 100 nM |
| COc1ccc2nc(C(F)(F)F)n(CC(=O)N3CC[C@H](NCC4COC4)C[C@H]3c3ncc(-c4cc5ccccc5nc4OC)[nH]3)c2c1 [2-(6-methoxy-2-(trifluoromethyl)-1H-benzo[d]imidazol-1-yl)-1-((2S,4S)-2-(5-(2-methoxyquinolin-3-yl)-1H-imidazol-2-yl)-4-((oxetan-3-ylmethyl)amino)piperidin-1-yl)ethan-1-one] | < 100 nM |
| COc1ccc2nc(C(F)(F)F)n(CC(=O)N3CC[C@H](NCc4cnccn4)C[C@H]3c3ncc(-c4cc5ccccc5nc4OC)[nH]3)c2c1 [2-(6-methoxy-2-(trifluoromethyl)-1H-benzo[d]imidazol-1-yl)-1-((2S,4S)-2-(5-(2-methoxyquinolin-3-yl)-1H-imidazol-2-yl)-4-((pyrazin-2-ylmethyl)amino)piperidin-1-yl)ethan-1-one] | < 100 nM |
| COc1ccc2nc(C(F)(F)F)n(CC(=O)N3CC[C@H](NCc4ccccn4)C[C@H]3c3ncc(-c4cc5ccccc5nc4OC)[nH]3)c2c1 [2-(6-methoxy-2-(trifluoromethyl)-1H-benzo[d]imidazol-1-yl)-1-((2S,4S)-2-(5-(2-methoxyquinolin-3-yl)-1H-imidazol-2-yl)-4-((pyridin-2-ylmethyl)amino)piperidin-1-yl)ethan-1-one] | < 100 nM |
